The results in this text go back to publication PMC10950554 (Methods in enzymology, 2023).

The test has as its target ERK2 (Rattus norvegicus, UniProt P63086). Put plainly: competitive fluorescence anisotropy displacement of FITC-X-Lig-D. The class given is binding. On the technique in general: Fluorescence polarisation rises when a labelled molecule tumbles more slowly, as on binding a larger partner.

Sequence of ERK2 (P63086 2-358): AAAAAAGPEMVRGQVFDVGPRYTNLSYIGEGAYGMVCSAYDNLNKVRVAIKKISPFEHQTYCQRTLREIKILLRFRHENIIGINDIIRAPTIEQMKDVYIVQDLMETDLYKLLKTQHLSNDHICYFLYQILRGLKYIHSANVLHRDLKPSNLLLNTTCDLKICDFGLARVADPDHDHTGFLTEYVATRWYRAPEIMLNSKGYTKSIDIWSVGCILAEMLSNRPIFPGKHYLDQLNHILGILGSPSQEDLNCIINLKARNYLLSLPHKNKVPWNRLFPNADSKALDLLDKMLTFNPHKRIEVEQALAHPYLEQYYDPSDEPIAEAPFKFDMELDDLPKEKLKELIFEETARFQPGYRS

`CC1(C)C2CCC(CN=C(N)CSS(=O)(=O)O)C1C2` (stereo not shown) [NSC 194308]: the affinity corresponds to a Ki of 730 ± 260 nM.
